Results on five compounds are retold here after patent publication US20050191710A1, “Method for labeling a membrane-localized protein” (priority 2004, published 2005).

For one test, the system named is CFTR. The experiment in a line: cAMP-stimulated iodide efflux from stably transfected cells. It is filed as cell-based, baby hamster kidney (BHK) cells. The conditions noted are these: for peak iodide efflux: compared to wild-type CFTR. An excerpt: Since CFTR functions as a chloride channel, responsiveness of the tagged channels to PKA was examined by comparing cAMP-stimulated iodide efflux from cells stably transfected with 1) wild-type CFTR, 2) CFTR with a polyhistidine tag, 3) wild-type CFTR bearing both polyhistidine and biotinylation tags or 4) a ΔF508 CFTR construct that was identical to 3) except for deletion of phenylalanine 508. […] Therefore, similar to epitope-tagging of the fourth extracellular loop (Benharouga, et al. (2003) J. Biol. Chem. 278:22079-22089; Schultz, et al. (1997) Am. J. Physiol. Cell Physiol. 273:C2080-C2089), iodide efflux responses to PKA were preserved after insertion of a biotinylation target sequence.
Iodide effluxes were measured using standard methods (Cormet-Boyaka, et al. (2002) Proc. Natl. Acad. Sci. USA 99:12477-12482; Cormet-Boyaka, et al. (2002) Proc. Natl. Acad. Sci. USA 99:12477-12482). Briefly, cells were incubated with iodide loading buffer (136 mM NaI, 3 mM KNO3, 2 mM Ca(NO3)2, 11 mM glucose and 20 mM HEPES, pH 7.4) for 1 hour at room temperature. Extracellular NaI was removed by rinsing with iodide-free efflux buffer (same as loading buffer except NaNO3 replaced NaI). Samples were collected by removing the efflux buffer at 1 minute intervals and replacing it with fresh solution. The first three samples established the baseline efflux rate, then cpt-cAMP was added and samples were collected at 1 minute intervals in the continuous presence of cpt-cAMP for 15 minutes. Iodide was measured using an iodide sensitive electrode (Orion Research, Inc., Boston, Mass., USA) and converted to nmoles released/minutes.

The target in test [1] is T1, BirA (Escherichia coli, UniProt P06709). The settings on record: estimated from initial rate of biotinyl-5′-AMP synthesis; read-out: KM for ATP; cited from earlier work.
T1 sequence (P06709 whole entry): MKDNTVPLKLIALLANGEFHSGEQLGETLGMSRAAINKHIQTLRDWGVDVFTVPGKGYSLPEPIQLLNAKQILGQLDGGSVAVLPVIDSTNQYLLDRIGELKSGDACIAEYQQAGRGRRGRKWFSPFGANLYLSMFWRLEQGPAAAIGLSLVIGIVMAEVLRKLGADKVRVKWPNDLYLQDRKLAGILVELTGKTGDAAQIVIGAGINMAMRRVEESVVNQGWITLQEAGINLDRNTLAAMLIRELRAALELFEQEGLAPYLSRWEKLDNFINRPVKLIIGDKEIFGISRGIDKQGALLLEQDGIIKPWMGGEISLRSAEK
The target of test [2] is T1, BirA. The conditions noted are these: read-out: equilibrium dissociation constant; cited from earlier work.

One may read the Km as the substrate concentration at which the rate is half of its maximum.

In the case of “CFTR with a polyhistidine tag: CFTR with glycine and ten histidines added to the C-terminus [reference compound]”, the peak iodide efflux result in the test on CFTR (cAMP-stimulated) is listed as “not diminished”.
With `Nc1ncnc2c1ncn2[C@@H]1O[C@H](COP(=O)(O)OP(=O)(O)OP(=O)(O)O)[C@@H](O)[C@H]1O` [ATP], the Km at BirA [1] is 3000 µM.
As for “wild-type CFTR bearing both polyhistidine and biotinylation tags: CFTR-biotintag with ten histidines at the C-terminus for purification on nickel-NTA beads”, in the test on CFTR (cAMP-stimulated), the “delay of iodide efflux compared to wild-type CFTR” value is approximately 1 min and the peak iodide efflux result was “not diminished”.
In the case of `O=C(O)CCCC[C@@H]1SC[C@@H]2NC(=O)N[C@@H]21` [biotin], the Kd at BirA [2] was 10 to 100 nM.
Regarding “ΔF508CFTR-biotintag: ΔF508 CFTR construct with biotinylation tag, deletion of phenylalanine 508 (disease mutation)”, the cAMP-stimulated iodide efflux entry with CFTR is “not detected”.
